The values that follow come from the Kinase Knowledgebase extract (Sharma et al. 2016).

One assay deals with PIK3CD (Human) (UniProt O00329). In words: Assessment of PIK3CD Kinase Activity.
A further assay has as its target PIK3CG (human) (UniProt P48736). In words: Assessment of PIK3CG Kinase Activity.
Another assay addresses PIK3CA (human) (UniProt P42336). Briefly: Assessment of PIK3CA Kinase Activity.
The target in a further assay is PIK3CB (Human) (UniProt P42338). In words: Assessment of PIK3CB Kinase Activity.

pIC50: −log10 of the molar value. Where only a bound is given, the exact number is not on record here.

PIK3CA (human), sequence (P42336 whole entry, looked up): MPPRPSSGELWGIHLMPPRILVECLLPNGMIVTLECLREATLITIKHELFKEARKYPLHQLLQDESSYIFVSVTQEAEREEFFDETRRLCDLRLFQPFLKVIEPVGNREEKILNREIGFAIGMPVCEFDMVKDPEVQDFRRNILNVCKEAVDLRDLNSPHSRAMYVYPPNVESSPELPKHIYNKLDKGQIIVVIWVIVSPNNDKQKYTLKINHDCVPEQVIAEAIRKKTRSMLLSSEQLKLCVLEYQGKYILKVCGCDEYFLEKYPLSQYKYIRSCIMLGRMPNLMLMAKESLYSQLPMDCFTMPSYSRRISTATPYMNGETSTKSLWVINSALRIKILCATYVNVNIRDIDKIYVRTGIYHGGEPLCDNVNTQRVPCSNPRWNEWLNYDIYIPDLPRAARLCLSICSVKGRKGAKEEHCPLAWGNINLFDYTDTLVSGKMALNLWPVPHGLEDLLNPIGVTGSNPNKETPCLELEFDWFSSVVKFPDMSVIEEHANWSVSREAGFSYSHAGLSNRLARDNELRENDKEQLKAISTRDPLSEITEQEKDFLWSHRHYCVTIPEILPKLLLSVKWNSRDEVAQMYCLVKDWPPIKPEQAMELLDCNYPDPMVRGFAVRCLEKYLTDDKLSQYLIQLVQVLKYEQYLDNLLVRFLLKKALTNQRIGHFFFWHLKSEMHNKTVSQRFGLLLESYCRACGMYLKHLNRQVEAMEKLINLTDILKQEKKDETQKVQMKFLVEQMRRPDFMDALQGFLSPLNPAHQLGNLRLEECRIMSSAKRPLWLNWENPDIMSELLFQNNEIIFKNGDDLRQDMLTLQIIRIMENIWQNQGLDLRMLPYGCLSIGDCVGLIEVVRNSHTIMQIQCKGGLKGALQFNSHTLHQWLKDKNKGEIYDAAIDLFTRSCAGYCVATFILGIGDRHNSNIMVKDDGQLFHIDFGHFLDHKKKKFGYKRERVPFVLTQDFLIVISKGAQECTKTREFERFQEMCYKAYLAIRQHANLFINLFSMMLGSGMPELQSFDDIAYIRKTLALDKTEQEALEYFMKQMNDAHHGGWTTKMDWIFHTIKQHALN
PIK3CG (human), sequence (P48736 whole entry, looked up): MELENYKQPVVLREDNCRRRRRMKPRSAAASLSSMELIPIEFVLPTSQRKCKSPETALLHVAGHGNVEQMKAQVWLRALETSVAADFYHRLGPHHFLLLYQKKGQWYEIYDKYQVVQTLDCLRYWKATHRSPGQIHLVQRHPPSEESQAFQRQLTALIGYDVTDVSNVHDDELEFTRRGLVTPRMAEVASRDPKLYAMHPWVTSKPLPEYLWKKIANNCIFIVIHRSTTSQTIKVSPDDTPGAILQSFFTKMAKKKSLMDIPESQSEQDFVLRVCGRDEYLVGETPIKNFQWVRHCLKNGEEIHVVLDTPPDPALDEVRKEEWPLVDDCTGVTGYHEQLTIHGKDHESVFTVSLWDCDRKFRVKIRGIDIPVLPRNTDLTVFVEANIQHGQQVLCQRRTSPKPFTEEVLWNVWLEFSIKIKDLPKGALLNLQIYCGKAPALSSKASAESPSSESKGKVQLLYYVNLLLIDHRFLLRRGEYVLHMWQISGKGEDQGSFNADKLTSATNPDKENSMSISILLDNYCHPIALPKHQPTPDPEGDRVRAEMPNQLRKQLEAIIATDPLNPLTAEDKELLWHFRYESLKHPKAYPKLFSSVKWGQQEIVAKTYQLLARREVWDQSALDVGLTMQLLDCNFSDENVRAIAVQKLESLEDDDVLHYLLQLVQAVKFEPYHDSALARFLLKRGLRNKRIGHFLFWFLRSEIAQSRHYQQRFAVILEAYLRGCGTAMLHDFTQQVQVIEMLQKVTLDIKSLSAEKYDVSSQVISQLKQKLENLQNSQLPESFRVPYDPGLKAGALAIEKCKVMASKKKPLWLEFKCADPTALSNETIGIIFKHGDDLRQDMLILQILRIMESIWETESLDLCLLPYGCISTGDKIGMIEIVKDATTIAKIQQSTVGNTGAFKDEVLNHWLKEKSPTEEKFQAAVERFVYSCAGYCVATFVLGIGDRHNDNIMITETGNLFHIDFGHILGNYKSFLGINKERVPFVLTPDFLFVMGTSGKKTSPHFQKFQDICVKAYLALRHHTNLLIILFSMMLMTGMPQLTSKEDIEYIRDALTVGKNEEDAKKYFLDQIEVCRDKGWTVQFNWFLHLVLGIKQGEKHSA
PIK3CD (Human), sequence (O00329 whole entry, looked up): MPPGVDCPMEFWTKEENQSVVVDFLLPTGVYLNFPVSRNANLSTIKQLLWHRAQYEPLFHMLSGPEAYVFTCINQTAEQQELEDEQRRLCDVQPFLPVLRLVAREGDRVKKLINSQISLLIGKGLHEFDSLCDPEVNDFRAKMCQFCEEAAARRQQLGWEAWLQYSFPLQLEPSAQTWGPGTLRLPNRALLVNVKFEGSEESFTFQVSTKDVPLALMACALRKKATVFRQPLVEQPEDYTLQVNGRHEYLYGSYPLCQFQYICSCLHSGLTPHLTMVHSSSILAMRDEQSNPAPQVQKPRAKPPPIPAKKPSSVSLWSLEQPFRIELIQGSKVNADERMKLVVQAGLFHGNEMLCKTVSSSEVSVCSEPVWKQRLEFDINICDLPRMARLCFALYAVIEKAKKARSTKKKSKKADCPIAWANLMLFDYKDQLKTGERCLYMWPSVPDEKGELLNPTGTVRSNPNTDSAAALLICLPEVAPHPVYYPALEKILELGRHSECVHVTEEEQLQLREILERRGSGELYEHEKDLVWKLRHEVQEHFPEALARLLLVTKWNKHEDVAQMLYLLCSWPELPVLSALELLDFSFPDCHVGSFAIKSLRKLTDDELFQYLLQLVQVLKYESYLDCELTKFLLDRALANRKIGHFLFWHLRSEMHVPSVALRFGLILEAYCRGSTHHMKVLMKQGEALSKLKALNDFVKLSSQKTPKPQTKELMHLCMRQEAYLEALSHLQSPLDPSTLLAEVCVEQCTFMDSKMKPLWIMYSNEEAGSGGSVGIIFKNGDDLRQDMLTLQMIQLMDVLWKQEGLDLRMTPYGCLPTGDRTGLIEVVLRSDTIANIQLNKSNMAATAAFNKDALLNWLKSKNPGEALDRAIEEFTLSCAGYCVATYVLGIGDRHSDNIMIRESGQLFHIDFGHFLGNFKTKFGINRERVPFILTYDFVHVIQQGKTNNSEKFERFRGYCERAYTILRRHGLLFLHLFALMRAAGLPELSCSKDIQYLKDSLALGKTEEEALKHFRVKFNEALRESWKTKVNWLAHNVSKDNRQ
PIK3CB (Human), sequence (P42338 whole entry, looked up): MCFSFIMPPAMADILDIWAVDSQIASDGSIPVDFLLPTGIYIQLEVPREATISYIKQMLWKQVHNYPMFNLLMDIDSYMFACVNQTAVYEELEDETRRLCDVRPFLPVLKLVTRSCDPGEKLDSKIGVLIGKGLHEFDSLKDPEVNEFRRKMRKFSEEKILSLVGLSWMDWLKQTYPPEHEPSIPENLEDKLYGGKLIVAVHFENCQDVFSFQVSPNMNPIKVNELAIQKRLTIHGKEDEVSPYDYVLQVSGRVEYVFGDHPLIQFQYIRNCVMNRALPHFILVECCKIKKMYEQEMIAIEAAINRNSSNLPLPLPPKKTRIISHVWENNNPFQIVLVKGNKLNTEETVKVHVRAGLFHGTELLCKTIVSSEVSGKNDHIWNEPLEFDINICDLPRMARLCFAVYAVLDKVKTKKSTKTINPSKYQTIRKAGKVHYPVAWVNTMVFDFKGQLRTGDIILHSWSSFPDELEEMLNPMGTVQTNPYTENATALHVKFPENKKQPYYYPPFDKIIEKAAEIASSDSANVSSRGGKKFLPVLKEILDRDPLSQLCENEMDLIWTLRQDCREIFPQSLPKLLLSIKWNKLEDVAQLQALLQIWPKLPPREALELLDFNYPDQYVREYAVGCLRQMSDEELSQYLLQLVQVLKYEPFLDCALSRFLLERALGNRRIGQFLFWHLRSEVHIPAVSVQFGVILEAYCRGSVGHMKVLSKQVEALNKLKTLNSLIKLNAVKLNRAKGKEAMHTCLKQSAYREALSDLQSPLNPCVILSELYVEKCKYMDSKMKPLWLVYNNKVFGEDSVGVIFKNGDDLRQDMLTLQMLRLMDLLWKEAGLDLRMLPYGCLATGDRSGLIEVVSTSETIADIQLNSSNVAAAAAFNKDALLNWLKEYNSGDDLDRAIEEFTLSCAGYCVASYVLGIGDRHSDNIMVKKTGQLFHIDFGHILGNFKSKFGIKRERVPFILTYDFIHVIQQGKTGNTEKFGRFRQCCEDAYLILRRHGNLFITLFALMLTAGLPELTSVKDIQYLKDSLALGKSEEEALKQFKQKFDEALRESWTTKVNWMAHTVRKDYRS

As to `C[C@H](Nc1nc(N)ncc1C#N)c1cc2cccc(-c3cnc4ccccc4c3)c2c(=O)n1-c1ccccc1`, the negative logarithm of the IC50 (pIC50) – broadly, the IC50 on a negative log10 scale, so that one unit is a factor of ten – is more than 7.00 on PIK3CD (Human), more than 7.00 on PIK3CG (human), more than 7.00 at PIK3CA (human) and 6.00 to 7.00 on PIK3CB (Human).

Regarding `C[C@H](Nc1ncnc(N)c1[N+](=O)[O-])c1cc2cccc(Cl)c2c(=O)n1-c1ccccc1`, the negative logarithm of the IC50 (pIC50) is more than 7.00 at PIK3CD (Human), more than 7.00 on PIK3CG (human), 6.00 to 7.00 against PIK3CA (human) and more than 7.00 on PIK3CB (Human).

In the case of `C[C@H](Nc1nc(N)ncc1C(=O)N1CCC1)c1cc2cccc(-c3cnn(C)c3)c2c(=O)n1-c1ccccc1`, the negative logarithm of the IC50 (pIC50) on PIK3CD (Human) is 6.00 to 7.00; against PIK3CG (human), more than 7.00; on PIK3CA (human), less than 5.00; against PIK3CB (Human) it was less than 5.00.

Take `COc1cc(-c2cccc3cc([C@@H](C)Nc4nc(N)ncc4C#N)n(-c4ccccc4)c(=O)c23)ccn1`: the negative logarithm of the IC50 (pIC50) at PIK3CD (Human) is more than 7.00; against PIK3CG (human) it was 6.00 to 7.00; against PIK3CA (human), less than 5.00; against PIK3CB (Human) it was less than 5.00.

As to `COc1cncc(-c2cccc3cc([C@H](C)Nc4nc(N)ncc4C#N)n(-c4ccccc4)c(=O)c23)c1`, the negative-log IC50 (pIC50) is more than 7.00 at PIK3CD (Human), more than 7.00 at PIK3CG (human), 6.00 to 7.00 against PIK3CA (human) and 6.00 to 7.00 against PIK3CB (Human).

For `C[C@H](Nc1nc(N)ncc1C#N)c1cc2cccc(-c3ccnnc3)c2c(=O)n1C1CC1`, the negative-log IC50 (pIC50) against PIK3CD (Human) was more than 7.00; against PIK3CG (human), 6.00 to 7.00; on PIK3CA (human), less than 5.00; on PIK3CB (Human), 6.00 to 7.00.

As to `C[C@H](Nc1nc(N)ncc1C#N)c1cc2cccc(Cl)c2c(=O)n1-c1cccnc1`, the pIC50 is more than 7.00 on PIK3CD (Human), more than 7.00 against PIK3CG (human), less than 5.00 on PIK3CA (human) and 6.00 to 7.00 against PIK3CB (Human).

As for `C[C@H](Nc1nc(N)ncc1C#N)c1cc2cccc(C#CCCC(=O)N3CCOCC3)c2c(=O)n1-c1ccccc1`, the pIC50 is more than 7.00 against PIK3CD (Human), more than 7.00 on PIK3CG (human), 6.00 to 7.00 against PIK3CA (human) and 6.00 to 7.00 against PIK3CB (Human).

As for `C[C@H](Nc1nc(N)ncc1-c1csc(S(C)(=O)=O)n1)c1cc2cccc(Cl)c2c(=O)n1-c1ccccc1`, the pIC50 at PIK3CD (Human), against PIK3CG (human), against PIK3CA (human) and on PIK3CB (Human) was more than 7.00 throughout.

Take `C[C@H](Nc1nc(N)ncc1C#N)c1cc2cccc(-c3cncc(N(C)C)c3)c2c(=O)n1-c1ccccc1`: the pIC50 at PIK3CD (Human) was more than 7.00; on PIK3CG (human), more than 7.00; at PIK3CA (human) it was 6.00 to 7.00; against PIK3CB (Human) it was less than 5.00.

As to `Cc1nc(N)nc(N[C@@H](C)c2cc3cccc(Cl)c3c(=O)n2-c2ccccc2)c1C#N`, the pIC50 against PIK3CD (Human), on PIK3CG (human), at PIK3CA (human) and against PIK3CB (Human) was more than 7.00 in each case.

Regarding `C[C@H](Nc1cc(Cl)nc(N)n1)c1cc2cccc(Cl)c2c(=O)n1-c1ccccc1`, the pIC50 against PIK3CD (Human) was 6.00 to 7.00; against PIK3CG (human), 6.00 to 7.00; at PIK3CA (human) it was less than 5.00; against PIK3CB (Human), less than 5.00.

On to `C[C@H](Nc1nc(N)ncc1C#N)c1cc2cccc(Cl)c2c(=O)n1C1CCCC1`, for which the pIC50 was more than 7.00 against PIK3CD (Human), more than 7.00 on PIK3CG (human), less than 5.00 against PIK3CA (human) and 6.00 to 7.00 on PIK3CB (Human).

For the compound `C[C@H](Nc1nc(N)ncc1C#N)c1cc2cccc(Oc3ccccc3)c2c(=O)n1-c1ccccc1`, the negative logarithm of the IC50 (pIC50) on PIK3CD (Human) is more than 7.00; at PIK3CG (human), more than 7.00; at PIK3CA (human), less than 5.00; against PIK3CB (Human), less than 5.00.

In the case of `COc1cc(-c2cccc3cc([C@H](C)Nc4nc(N)ncc4C(=O)N(C)OC)n(-c4ccccc4)c(=O)c23)ccn1`, the pIC50 is 6.00 to 7.00 at PIK3CD (Human), more than 7.00 on PIK3CG (human), less than 5.00 against PIK3CA (human) and less than 5.00 against PIK3CB (Human).

`C[C@H](Nc1nc(N)ncc1C#N)c1cc2cccc(Cl)c2c(=O)n1-c1ccc(F)cc1`: the negative logarithm of the IC50 (pIC50) against PIK3CD (Human) is 6.00 to 7.00; against PIK3CG (human) it was 6.00 to 7.00; against PIK3CA (human), less than 5.00; at PIK3CB (Human), less than 5.00.
